Measurements published in PubChem BioAssay (NCI).
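Values below derive from 48-hour exposures of cells grown in 96-well plates, with endpoints linearly interpolated between the two concentrations bracketing the appropriate inhibition level. GI50 = concentration required for 50% inhibition of growth. The concentration for full growth arrest is given as TGI.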

Assays:
Test in all cases: NCI-60 cell line screen, 48 h
A498 renal = system: A498 renal
HCT-116 colon = system: HCT-116 colon
NCI-H522 lung = system: NCI-H522 lung
OVCAR-8 ovarian = system: OVCAR-8 ovarian
SF-295 CNS = system: SF-295 CNS
SK-OV-3 ovarian = system: SK-OV-3 ovarian
SNB-19 CNS = system: SNB-19 CNS
K-562 leukemia = system: K-562 leukemia
BT-549 breast = system: BT-549 breast
T-47D breast = system: T-47D breast

Row | Compound | TGI (A498 renal) | TGI (HCT-116 colon) | TGI (NCI-H522 lung) | TGI (OVCAR-8 ovarian) | TGI (SF-295 CNS) | TGI (SK-OV-3 ovarian) | TGI (SNB-19 CNS) | TGI (K-562 leukemia) | TGI (BT-549 breast) | TGI (T-47D breast) | GI50 (A498 renal) | GI50 (HCT-116 colon) | GI50 (K-562 leukemia) | GI50 (NCI-H522 lung) | GI50 (OVCAR-8 ovarian) | GI50 (SF-295 CNS) | GI50 (SK-OV-3 ovarian) | GI50 (SNB-19 CNS) | GI50 (T-47D breast) | GI50 (BT-549 breast)
1 | C=CCC1(C)CCCCC1(O)CS(=O)c1ccccc1 (stereo not drawn) | > 100 µM | > 100 µM | > 100 µM | > 100 µM | > 100 µM | > 100 µM | > 100 µM | – | – | – | – | – | – | – | – | – | – | – | – | –
2 | C1=NC(N(Cc2ccccc2)Cc2ccccc2)N(Cc2ccccc2)N1 (stereo not drawn) | 32.2 µM | 21.3 µM | 40.9 µM | 54.5 µM | 29.6 µM | 67.2 µM | 55.3 µM | 43.9 µM | – | – | – | – | – | – | – | – | – | – | – | –
3 | Nc1ccc(C2=N/C(=C\c3cccc(N)c3)C(=O)O2)cc1 | – | – | > 100 µM | > 100 µM | > 100 µM | > 100 µM | > 100 µM | > 100 µM | – | – | – | – | – | – | – | – | – | – | – | –
4 | C=C1C(=O)OC2C1CC(OC(C)=O)/C(C)=C/CCC1(C)OC21 (stereo not drawn) | – | > 100 µM | > 100 µM | > 100 µM | > 100 µM | > 100 µM | > 100 µM | > 100 µM | > 100 µM | > 100 µM | – | – | – | – | – | – | – | – | – | –
5 | NCCCOc1cc(Cl)ccc1NC(=O)c1cc2ccccc2cc1OCCCN | 3.08 µM | 2.8 µM | 2.34 µM | 3.59 µM | 3.42 µM | 2.72 µM | 3.21 µM | 4.12 µM | – | 3.2 µM | 1.58 µM | 1.37 µM | 1.72 µM | 0.575 µM | 1.84 µM | 1.66 µM | 1.4 µM | 1.62 µM | 1.51 µM | –
6 | Cc1ccc(N2C(=O)N(c3ccc(C)cc3)C3(SC=NN3C)C2=O)cc1 (stereo not drawn) | > 100 µM | > 100 µM | > 100 µM | > 100 µM | > 100 µM | > 100 µM | > 100 µM | > 100 µM | – | – | – | – | – | – | – | – | – | – | – | –
7 | COc1cc2c3c(n(CCCN(CCO)CCO)c(=O)c2cc1OC)-c1cc2c(cc1C3=O)OCO2 | 0.345 µM | 0.0679 µM | – | 6.01 µM | 0.288 µM | 34.9 µM | > 35.5 µM | – | 13.6 µM | > 22.7 µM | < 0.01 µM | < 0.01 µM | < 0.01 µM | – | 0.221 µM | < 0.01 µM | 2.22 µM | 0.603 µM | 0.144 µM | 0.586 µM
8 | Cn1cc(-c2csc(-c3cn(C)c4ccc(F)cc34)n2)c2cnccc21 | 3.04 µM | 3.06 µM | 3.34 µM | 3.93 µM | 3.23 µM | 3.75 µM | 3.3 µM | 3.78 µM | 3.1 µM | – | 1.62 µM | 1.66 µM | 1.7 µM | 1.77 µM | 2.02 µM | 1.71 µM | 2.03 µM | 1.82 µM | – | 1.71 µM
9 | CCOC(=O)C(C)(c1c(C)[nH]c2ccccc12)c1c(C)[nH]c2ccccc12 | 36.6 µM | 25 µM | – | 81.7 µM | 29 µM | 52.9 µM | – | 42.4 µM | – | – | – | – | – | – | – | – | – | – | – | –
10 | CCc1nc(Cl)c(Cl)c(Cl)n1 | – | – | – | > 100 µM | > 100 µM | > 100 µM | > 100 µM | > 100 µM | > 100 µM | – | – | – | – | – | – | – | – | – | – | –
